Reference: patent US20210252008A1, “BIARYL COMPOSITIONS AND METHODS FOR MODULATING A KINASE CASCADE” (Athenex, Inc., priority 2004, published 2021)

How the values were obtained:
[1] = tested on: PDGF receptor tyrosine kinase Y572/574; experiment: PDGF receptor autophosphorylation in cells; type: cell-based; details: c-Src/NIH-3T3 cells; FIG. 7
Protocol: (§1) HT29 (colon cancer) and c-Src527F/NIH-3T3 (Src transformed) cell lines were treated with KX2-391 or with AstraZeneca's ATP competitive Src inhibitor AZ28. AZ28 serves as a positive comparator to show what a validated Src inhibitor should do in these assays. After treatment with compound, cells were lysed, subjected to PAGE and probed with a battery of antibodies. […] In addition, off-target protein phosphorylation was also investigated. Further, induction of apoptosis was evaluated via Caspase 3 cleavage. Multiple doses of each compound were tested because the trends in response to increasing drug concentration are the most reliable indicator of activity.
(§2) The same range of multiples of the GI50 for AZ28 in these two cell lines was run as a comparison.
This is thought not to be a direct Src substrate in cells.

[2] = tested on: Paxillin Y-31; experiment: Intracellular phosphorylation levels: Paxillin Y-31; type: cell-based; details: c-Src/NIH-3T3 cells; FIG. 4
Protocol: as §1, §2
Note: paxillin Y-31 was not detected in HT29 cells with or without added drug.

[3] = tested on: FAK Tyr 925; experiment: Intracellular phosphorylation levels: FAK Tyr 925; type: cell-based; details: c-Src/NIH-3T3 and HT-29 cells; FIG. 2
Protocol: as §1, §2

[4] = tested on: She Y239/240; experiment: Intracellular phosphorylation levels: She Y239/240; type: cell-based; details: c-Src/NIH-3T3 and HT-29 cells; FIG. 3
Protocol: as §1, §2

[5] = biological target: CHK1(h) (Homo sapiens, UniProt O14757); experiment: Inhibition of isolated kinases; type: biochemical; details: compound @ 10 μM
[6] = tested on: FAK Y397; experiment: FAK autophosphorylation in cells; type: cell-based; details: c-Src527F/NIH3T3 cells; FIG. 8
Protocol: as §1, §2
FAK Y397 is mainly a FAK autophosphorylation site and only a poor Src transphorylation site. AZ28 is […] FAK inhibitor (see isolated enzyme data in Table 5). However, no inhibition of FAK autophosphorylation in c-Src527F/NIH3T3 cells is seen with KX-391.

[7] = biological target: IR(h) (Homo sapiens, UniProt P06213); experiment: Inhibition of isolated kinases; type: biochemical; details: compound @ 10 μM
From the text: (§3) Table 5 illustrates percent activity of isolated kinases in the presence of the AstraZeneca ATP-competitive inhibitor (KX-328, AZ-28) or KX2-391 relative to control (untreated) isolated kinases.

[8] = biological target: MAPK2(h) (Homo sapiens, UniProt P28482); experiment: Inhibition of isolated kinases; type: biochemical; details: compound @ 10 μM
From the text: as §3

[9] = biological target: Yes(h) (Homo sapiens, UniProt P07947); experiment: Inhibition of isolated kinases; type: biochemical; details: compound @ 10 μM
Yes(h), sequence (P07947 whole entry): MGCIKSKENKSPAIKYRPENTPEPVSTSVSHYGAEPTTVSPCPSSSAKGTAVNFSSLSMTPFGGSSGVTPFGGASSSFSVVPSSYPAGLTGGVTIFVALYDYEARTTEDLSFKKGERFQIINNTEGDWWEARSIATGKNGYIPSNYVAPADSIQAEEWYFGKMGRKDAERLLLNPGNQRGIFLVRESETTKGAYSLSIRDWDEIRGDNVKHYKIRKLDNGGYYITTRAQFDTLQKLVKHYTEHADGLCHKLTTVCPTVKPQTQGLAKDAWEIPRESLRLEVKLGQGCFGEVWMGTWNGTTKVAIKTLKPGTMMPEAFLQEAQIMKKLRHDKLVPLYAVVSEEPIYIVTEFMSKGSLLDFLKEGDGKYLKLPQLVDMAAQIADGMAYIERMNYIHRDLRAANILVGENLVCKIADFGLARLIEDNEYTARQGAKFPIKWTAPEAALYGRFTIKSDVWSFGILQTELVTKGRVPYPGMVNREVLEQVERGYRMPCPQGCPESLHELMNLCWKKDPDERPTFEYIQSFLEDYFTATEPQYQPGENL
From the text: as §3

[10] = biological target: Abl(h) (Homo sapiens, UniProt P00519); experiment: Inhibition of isolated kinases; type: biochemical; details: compound @ 10 μM
Abl(h), sequence (P00519 whole entry): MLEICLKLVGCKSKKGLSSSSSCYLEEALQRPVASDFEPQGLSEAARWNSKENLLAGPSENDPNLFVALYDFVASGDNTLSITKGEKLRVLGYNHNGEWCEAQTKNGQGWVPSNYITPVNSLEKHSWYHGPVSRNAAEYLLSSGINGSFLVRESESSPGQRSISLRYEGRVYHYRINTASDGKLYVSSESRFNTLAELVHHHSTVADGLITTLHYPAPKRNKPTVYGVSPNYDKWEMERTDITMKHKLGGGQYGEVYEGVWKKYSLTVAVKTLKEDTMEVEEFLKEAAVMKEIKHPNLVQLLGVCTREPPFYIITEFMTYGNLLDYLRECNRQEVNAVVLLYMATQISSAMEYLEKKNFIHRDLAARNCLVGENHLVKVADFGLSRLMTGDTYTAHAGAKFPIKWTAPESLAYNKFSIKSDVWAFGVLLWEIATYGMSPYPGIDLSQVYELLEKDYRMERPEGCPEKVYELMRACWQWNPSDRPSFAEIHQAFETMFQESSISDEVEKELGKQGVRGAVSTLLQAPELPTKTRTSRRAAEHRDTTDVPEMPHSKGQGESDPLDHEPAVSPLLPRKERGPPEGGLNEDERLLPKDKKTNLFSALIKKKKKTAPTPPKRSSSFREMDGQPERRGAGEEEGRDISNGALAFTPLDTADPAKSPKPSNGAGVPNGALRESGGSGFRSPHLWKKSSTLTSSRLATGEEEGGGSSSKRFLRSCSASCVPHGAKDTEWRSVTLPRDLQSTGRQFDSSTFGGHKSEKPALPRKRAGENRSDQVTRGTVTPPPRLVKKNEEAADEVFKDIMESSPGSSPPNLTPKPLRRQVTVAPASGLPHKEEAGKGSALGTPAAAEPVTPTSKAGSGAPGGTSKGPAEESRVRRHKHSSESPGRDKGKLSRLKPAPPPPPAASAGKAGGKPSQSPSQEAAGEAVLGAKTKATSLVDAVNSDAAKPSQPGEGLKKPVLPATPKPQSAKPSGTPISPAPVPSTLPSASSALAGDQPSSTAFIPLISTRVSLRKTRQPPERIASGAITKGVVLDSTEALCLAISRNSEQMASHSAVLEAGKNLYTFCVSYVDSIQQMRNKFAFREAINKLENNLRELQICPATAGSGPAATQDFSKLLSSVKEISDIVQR
From the text: as §3

[11] = biological target: PDGFRβ(h) (Homo sapiens, UniProt P09619); experiment: Inhibition of isolated kinases; type: biochemical; details: compound @ 10 μM
From the text: as §3

[12] = tested on: PI3 kinase; experiment: Inhibition of isolated kinases; type: biochemical; details: compound @ 10 μM
From the text: as §3

[13] = biological target: ZAP-70(h) (Homo sapiens, UniProt P43403); experiment: Inhibition of isolated kinases; type: biochemical; details: compound @ 10 μM
ZAP-70(h), sequence (P43403 whole entry): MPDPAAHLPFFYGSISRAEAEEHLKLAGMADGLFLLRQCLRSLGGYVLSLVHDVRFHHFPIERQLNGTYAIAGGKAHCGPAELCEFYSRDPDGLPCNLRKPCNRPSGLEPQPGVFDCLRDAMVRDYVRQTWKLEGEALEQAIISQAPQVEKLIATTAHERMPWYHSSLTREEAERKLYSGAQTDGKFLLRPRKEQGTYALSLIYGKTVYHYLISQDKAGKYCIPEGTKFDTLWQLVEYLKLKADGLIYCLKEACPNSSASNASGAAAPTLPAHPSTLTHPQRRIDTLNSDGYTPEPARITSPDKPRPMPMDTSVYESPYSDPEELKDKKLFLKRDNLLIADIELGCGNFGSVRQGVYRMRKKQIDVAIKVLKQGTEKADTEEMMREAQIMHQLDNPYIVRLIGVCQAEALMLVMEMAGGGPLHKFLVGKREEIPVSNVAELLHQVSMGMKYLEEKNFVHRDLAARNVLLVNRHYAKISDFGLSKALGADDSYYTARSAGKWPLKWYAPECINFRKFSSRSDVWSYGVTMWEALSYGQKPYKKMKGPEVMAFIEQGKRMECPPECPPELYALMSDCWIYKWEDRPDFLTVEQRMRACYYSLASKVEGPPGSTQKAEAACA
From the text: as §3

[14] = biological target: Lck(h) (Homo sapiens, UniProt P06239); experiment: Inhibition of isolated kinases; type: biochemical; details: compound @ 10 μM
Lck(h), sequence (P06239 whole entry): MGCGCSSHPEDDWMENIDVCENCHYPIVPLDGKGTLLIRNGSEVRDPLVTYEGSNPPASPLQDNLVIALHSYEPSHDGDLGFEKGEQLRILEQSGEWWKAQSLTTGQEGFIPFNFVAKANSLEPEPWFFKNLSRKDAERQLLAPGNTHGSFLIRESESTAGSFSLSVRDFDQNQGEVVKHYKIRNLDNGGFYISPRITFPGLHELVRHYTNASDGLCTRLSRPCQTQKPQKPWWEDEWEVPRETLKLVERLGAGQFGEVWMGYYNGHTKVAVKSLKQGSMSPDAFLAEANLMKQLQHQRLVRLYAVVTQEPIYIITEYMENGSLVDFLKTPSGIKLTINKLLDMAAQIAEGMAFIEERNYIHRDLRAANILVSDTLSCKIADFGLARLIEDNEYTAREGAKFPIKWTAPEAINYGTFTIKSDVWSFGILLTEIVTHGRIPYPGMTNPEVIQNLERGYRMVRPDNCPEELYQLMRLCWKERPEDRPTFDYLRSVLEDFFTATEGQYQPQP
From the text: as §3

[15] = biological target: Pyk2(h) (Homo sapiens, UniProt Q14289); experiment: Inhibition of isolated kinases; type: biochemical; details: compound @ 10 μM
From the text: as §3

[16] = biological target: PKCα(h) (Homo sapiens, UniProt P17252); experiment: Inhibition of isolated kinases; type: biochemical; details: compound @ 10 μM
From the text: as §3

[17] = biological target: EGFR(h) (Homo sapiens, UniProt P00533); experiment: Inhibition of isolated kinases; type: biochemical; details: compound @ 10 μM
EGFR(h), sequence (P00533 25-1210): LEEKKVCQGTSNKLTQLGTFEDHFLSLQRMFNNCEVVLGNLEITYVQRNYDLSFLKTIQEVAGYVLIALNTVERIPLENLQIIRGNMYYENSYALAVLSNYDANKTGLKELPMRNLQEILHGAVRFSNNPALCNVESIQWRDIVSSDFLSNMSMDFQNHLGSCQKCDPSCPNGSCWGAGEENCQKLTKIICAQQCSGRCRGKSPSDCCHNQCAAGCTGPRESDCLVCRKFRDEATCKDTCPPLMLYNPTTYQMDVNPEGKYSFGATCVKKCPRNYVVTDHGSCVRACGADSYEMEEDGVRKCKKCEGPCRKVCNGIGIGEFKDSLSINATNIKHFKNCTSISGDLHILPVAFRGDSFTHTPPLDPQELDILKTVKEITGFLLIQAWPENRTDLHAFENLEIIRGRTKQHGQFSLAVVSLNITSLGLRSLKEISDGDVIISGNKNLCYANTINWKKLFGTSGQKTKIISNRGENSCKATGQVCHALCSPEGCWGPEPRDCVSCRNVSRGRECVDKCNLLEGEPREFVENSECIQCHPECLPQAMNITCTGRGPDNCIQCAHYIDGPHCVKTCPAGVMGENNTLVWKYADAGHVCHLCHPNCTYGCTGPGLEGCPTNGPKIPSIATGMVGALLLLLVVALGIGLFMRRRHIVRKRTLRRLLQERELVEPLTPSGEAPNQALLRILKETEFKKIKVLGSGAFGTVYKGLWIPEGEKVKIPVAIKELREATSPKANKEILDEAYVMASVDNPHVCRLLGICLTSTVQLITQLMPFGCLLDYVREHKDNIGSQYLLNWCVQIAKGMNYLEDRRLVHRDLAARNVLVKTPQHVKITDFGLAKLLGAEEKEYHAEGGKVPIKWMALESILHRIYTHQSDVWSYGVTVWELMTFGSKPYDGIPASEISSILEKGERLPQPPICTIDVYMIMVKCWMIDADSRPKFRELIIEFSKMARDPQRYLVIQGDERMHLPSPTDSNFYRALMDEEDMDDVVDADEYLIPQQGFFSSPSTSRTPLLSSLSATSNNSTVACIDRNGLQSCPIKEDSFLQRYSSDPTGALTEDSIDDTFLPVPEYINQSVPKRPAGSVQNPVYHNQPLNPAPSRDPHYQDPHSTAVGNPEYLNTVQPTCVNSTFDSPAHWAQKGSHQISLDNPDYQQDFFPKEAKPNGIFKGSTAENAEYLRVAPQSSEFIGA
From the text: as §3

[18] = biological target: Lyn(h) (Homo sapiens, UniProt P07948); experiment: Inhibition of isolated kinases; type: biochemical; details: compound @ 10 μM
Lyn(h), sequence (P07948 whole entry): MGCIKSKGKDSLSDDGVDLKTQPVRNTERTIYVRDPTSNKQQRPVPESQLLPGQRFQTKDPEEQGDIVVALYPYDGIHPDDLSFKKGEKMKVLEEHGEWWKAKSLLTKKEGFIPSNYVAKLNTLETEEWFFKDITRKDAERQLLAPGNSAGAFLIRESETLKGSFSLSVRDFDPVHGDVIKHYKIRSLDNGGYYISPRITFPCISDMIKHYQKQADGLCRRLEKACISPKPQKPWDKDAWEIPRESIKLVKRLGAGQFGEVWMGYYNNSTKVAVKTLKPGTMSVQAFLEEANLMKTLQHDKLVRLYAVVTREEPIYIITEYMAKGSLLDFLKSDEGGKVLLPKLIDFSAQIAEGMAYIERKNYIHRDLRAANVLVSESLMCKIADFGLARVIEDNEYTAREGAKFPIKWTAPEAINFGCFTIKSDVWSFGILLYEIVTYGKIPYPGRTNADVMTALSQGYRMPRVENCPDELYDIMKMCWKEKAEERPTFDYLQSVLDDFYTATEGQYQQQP
From the text: as §3

[19] = biological target: Fyn(h) (Homo sapiens, UniProt P06241); experiment: Inhibition of isolated kinases; type: biochemical; details: compound @ 10 μM
Fyn(h), sequence (P06241 whole entry): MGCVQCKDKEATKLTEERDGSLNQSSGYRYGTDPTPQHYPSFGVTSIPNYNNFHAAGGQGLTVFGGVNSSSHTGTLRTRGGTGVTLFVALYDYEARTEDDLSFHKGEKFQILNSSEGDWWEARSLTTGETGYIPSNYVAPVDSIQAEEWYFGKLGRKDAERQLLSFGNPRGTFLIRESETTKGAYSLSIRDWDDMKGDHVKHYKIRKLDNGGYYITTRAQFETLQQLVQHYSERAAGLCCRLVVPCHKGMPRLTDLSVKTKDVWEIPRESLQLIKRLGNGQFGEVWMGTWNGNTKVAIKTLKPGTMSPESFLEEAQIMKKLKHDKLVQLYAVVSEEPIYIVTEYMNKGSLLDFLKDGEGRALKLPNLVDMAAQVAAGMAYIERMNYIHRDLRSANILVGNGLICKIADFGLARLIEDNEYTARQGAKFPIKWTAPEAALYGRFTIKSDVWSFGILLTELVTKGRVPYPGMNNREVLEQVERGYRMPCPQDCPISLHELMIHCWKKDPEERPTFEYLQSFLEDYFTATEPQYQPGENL
From the text: as §3

[20] = biological target: FGFR2(h) (Homo sapiens, UniProt P21802); experiment: Inhibition of isolated kinases; type: biochemical; details: compound @ 10 μM
From the text: as §3

[21] = biological target: IGF-1R(h) (Homo sapiens, UniProt P08069); experiment: Inhibition of isolated kinases; type: biochemical; details: compound @ 10 μM
From the text: as §3

## O=C(Cc1ccc(-c2ccc(OCCN3CCOCC3)cc2)cn1)NCc1ccccc1 [KX2-391]
[1]
  PDGF receptor autophosphorylation (Y572/574): Some effect
[2]
  phosphorylation of Paxillin Y-31 (Src trans-phosphorylation): inhibited
[3]
  phosphorylation of FAK Tyr 925 (Src trans-phosphorylation): inhibited
[4]
  phosphorylation of She Y239/240 (Src trans-phosphorylation): inhibited
[5]
  percent activity of isolated kinase relative to control (untreated): 105%
[6]
  FAK autophosphorylation (Y397): no inhibition
[7]
  percent activity of isolated kinase relative to control (untreated): 112%
[8]
  percent activity of isolated kinase relative to control (untreated): 112%
[9]
  percent activity of isolated kinase relative to control (untreated): 92%
[10]
  percent activity of isolated kinase relative to control (untreated): 120%
[11]
  percent activity of isolated kinase relative to control (untreated): 110%
[12]
  percent activity of isolated kinase relative to control (untreated): 100%
[13]
  percent activity of isolated kinase relative to control (untreated): 108%
[14]
  percent activity of isolated kinase relative to control (untreated): 109%
[15]
  percent activity of isolated kinase relative to control (untreated): 97%
[16]
  percent activity of isolated kinase relative to control (untreated): 111%
[17]
  percent activity of isolated kinase relative to control (untreated): 134%
[18]
  percent activity of isolated kinase relative to control (untreated): 113%
[19]
  percent activity of isolated kinase relative to control (untreated): 85%
[20]
  percent activity of isolated kinase relative to control (untreated): 94%
[21]
  percent activity of isolated kinase relative to control (untreated): 101%
